Results taken from ChEMBL document CHEMBL1156829 (Proc Natl Acad Sci U S A, 2008).

What was measured:
Plasmodium falciparum [1] = assay: NOVARTIS: Inhibition of Plasmodium falciparum W2 (drug-resistant) proliferation in erythrocyte-based infection assay; assay type: functional, organism-based; conditions: Plasmodium falciparum, W2; read-out: EC50
[2] = NOVARTIS: Cytotoxicity against human hepatocellular carcinoma cell line (Huh7); assay type: toxicity, cell-based, Huh-7; conditions: Huh7 cells (hepatocellular carcinoma cell line)
Plasmodium falciparum [3] = assay: NOVARTIS: Inhibition of Plasmodium falciparum 3D7 (drug-susceptible) proliferation in erythrocyte-based infection assay; assay type: functional, organism-based; conditions: Plasmodium falciparum, 3D7

| SMILES | EC50 (Plasmodium falciparum [1]) | CC50 [2] | EC50 (Plasmodium falciparum [3]) |
| --- | --- | --- | --- |
| Nc1nc(N)c2cc(S(=O)(=O)c3ccc4ccccc4c3)ccc2n1 | 1710 nM | 49500 nM | 97.3 nM |
| CN(Cc1ccccc1)C(=O)CCNS(=O)(=O)c1cc(Br)cnc1N | 355 nM | > 10000 nM | 614 nM |
| N=C1NC(=O)/C(=C/C=C/c2ccc([N+](=O)[O-])o2)S1 | 592 nM | 17100 nM | 1080 nM |
| COCCCNC(=O)C=Cc1ccc(C(C)C)cc1 | 3580 nM | > 100000 nM | 5940 nM |
| CCN(CC)CCCC(C)Nc1ccnc2ccc(-c3ccccc3)cc12 (stereo not given) | 359 nM | > 10000 nM | 264 nM |
| Cc1cc(Nc2cccc(C(F)(F)F)c2)nc(NCc2ccccc2)n1 | 553 nM | 15600 nM | 178 nM |
| CCCCCc1ccc(C(=O)NCCCCNc2ccnc3cc(Cl)ccc23)cc1 | 353 nM | > 10000 nM | 386 nM |
| CCCn1c(=N)c(C(=O)NC(C)c2ccccc2)cc2c(=O)n3cccc(C)c3nc21 (stereo not given) | 3530 nM | > 100000 nM | 1650 nM |
| COc1cc(OC)cc(C(=O)N(CCCC(C)Nc2cc(OC)cc3cccnc23)Cc2ccc(Cl)cc2)c1 (stereo not given) | 348 nM | 9860 nM | > 439 nM |
| O=C(CSc1ccc2nnc(-c3cccs3)n2n1)Nc1ccccc1 | > 3470 nM | > 100000 nM | 1400 nM |
| Cc1cc(Nc2ccc(C(=O)n3ccnc3)cc2)n2ncnc2n1 | > 347 nM | > 10000 nM | > 1250 nM |
| COC(=O)c1c(S(=O)(=O)NCc2cccc(Cl)c2)sc2c1CCN(C(=O)C1CCCO1)C2 (stereo not given) | > 360 nM | > 10000 nM | > 608 nM |
| CCC[P+](CCC)(CCC)CC1OCc2ccccc2CO1 | 3600 nM | > 100000 nM | 1800 nM |
| COc1ccc(C2CC(c3c(-c4ccccc4)c4cc(Cl)ccc4[nH]c3=O)=NO2)cc1 (stereo not given) | > 359 nM | > 10000 nM | 624 nM |
| O=C(Nc1ccc(SC(F)(F)F)cc1)Nc1cccnc1N1CCC(C(F)(F)F)CC1 | 1420 nM | 39700 nM | 1770 nM |
| COc1ccc(CNc2ncnc3c2[nH]c2cc(OC)ccc23)cc1 | 856 nM | 24100 nM | 958 nM |
| COc1ccc(NC(=O)CCn2c(=S)oc3ccccc32)c([N+](=O)[O-])c1 | > 346 nM | > 10000 nM | > 1250 nM |
| CC1CCCN(C(=O)C2CCN(Cc3ccccn3)CC2)C1 (stereo not given) | 3580 nM | > 100000 nM | > 9140 nM |
| Cc1cc(C)cc(C(=O)Nc2c3c(nn2-c2cccc(C)c2C)CS(=O)(=O)C3)c1 | 358 nM | > 10000 nM | 329 nM |
| O=C(/C=C/c1ccccn1)NCC1Cc2cc(-c3cnccn3)ccc2O1 (stereo not given) | > 356 nM | > 10000 nM | > 1250 nM |
| CC(C)N(CC(=O)Nc1cc(C(C)(C)C)nn1-c1ccc(Cl)c(Cl)c1)C(=O)c1ccc(Cl)c(Cl)c1 | 356 nM | > 10000 nM | 1010 nM |
| COc1ccc(CN2CSC3=C(C#N)C(c4cccc(OC)c4)CC(=O)N3C2)cc1 (stereo not given) | 3550 nM | > 100000 nM | 3700 nM |
| CCCCCCCCNC(=O)C1CC1c1ccccc1 (stereo not given) | 3490 nM | > 100000 nM | > 10500 nM |
| CCC(Oc1ccc(C(C)(C)CC)cc1C(C)(C)CC)C(=O)Nc1ccc(Cl)c([N+](=O)[O-])c1 (stereo not given) | 349 nM | > 10000 nM | 275 nM |
| COc1cc(C(=O)NC(c2ccccc2Cl)c2cc(Cl)c3cccnc3c2O)cc(OC)c1OC (stereo not given) | 3470 nM | > 100000 nM | 6150 nM |
| Cc1cc(Nc2cccc(Cl)c2)nc(NCc2ccccc2)n1 | 607 nM | 17100 nM | 51 nM |
| c1ccc2nc3c(nnc4ccccc43)nc2c1 | 996 nM | 28500 nM | 1100 nM |
| O=C(Nc1ccc(Oc2ccccc2)cc1)NC(CN1CCCC1)c1ccccc1 (stereo not given) | 476 nM | 13600 nM | 355 nM |

| SMILES | EC50 (Plasmodium falciparum [1]) | CC50 [2] | EC50 (Plasmodium falciparum [3]) |
| --- | --- | --- | --- |
| O=C(Nc1ccc(-c2noc(CCc3ccccc3)n2)cc1)c1cccs1 | 554 nM | 15700 nM | 903 nM |
| COc1cccc(CNc2ncnc3sc(C(=O)NCC4COCCO4)c(C)c23)c1OC (stereo not given) | 3500 nM | > 100000 nM | > 12500 nM |
| COc1ccc(C(=O)C(C#N)=CNC2CCN(Cc3ccccc3)CC2)cc1 | 875 nM | 24800 nM | 177 nM |
| CN(CCCNc1ccnc2cc(Cl)ccc12)C(=O)C1C[C@H]1c1ccccc1 (stereo not given in full) | 411 nM | > 11600 nM | 76.1 nM |
| Clc1ccccc1C[n+]1cc(-c2ccccc2)n2c1CCC2 | 3470 nM | > 100000 nM | 2330 nM |
| O=C(Oc1ccccc1-c1nc2ccccn2c1NC1CCCCC1)c1ccc([N+](=O)[O-])cc1Cl | 352 nM | > 10000 nM | > 1250 nM |
| COc1cccc(C(=O)N(C)CCCNc2ccnc3cc(Cl)ccc23)c1 | 208 nM | 5930 nM | 390 nM |
| Clc1ccc(-c2cn3c([n+]2-c2ccccc2)CCC3)cc1 | 3510 nM | > 100000 nM | 257 nM |
| CCOc1ccc(C2N(C)c3ccccc3N2C)cc1 | 344 nM | > 10000 nM | 250 nM |
| N#Cc1cc2[nH]c3ccccc3c2n(-c2ccc([N+](=O)[O-])cc2)c1=N | 3440 nM | > 100000 nM | 530 nM |
| COc1cccc2c1C(=O)c1c(O)c3c(c(O)c1C2=O)CC(O)(C(=O)CO)CC3OC1CC(N)C(O)C(C)O1 (stereo not given) | 180 nM | 5250 nM | 169 nM |
| CCCCCCN(C(=O)c1ccc(C(C)(C)C)cc1)C(CC)c1nc2ccccc2c(=O)n1-c1ccccc1OC (stereo not given) | 348 nM | > 10000 nM | 356 nM |
| CC(=O)Nc1nc(-c2ccc(F)cc2)cs1 | 3520 nM | > 100000 nM | > 12500 nM |
| COCC(=O)N(C)CCCNc1ccnc2cc(Cl)ccc12 | 346 nM | > 10000 nM | 156 nM |
| CC(=O)Nc1ccccc1OC(F)(F)F | 468 nM | > 13200 nM | > 349 nM |
| Cc1cc(Nc2cccc(C(F)(F)F)c2)nc2ccc(NC(=O)c3cncc(Br)c3)cc12 | 3000 nM | > 84400 nM | 2450 nM |
| Cc1cc(Nc2ccc(I)cc2)n2ncnc2n1 | 3590 nM | > 100000 nM | 1560 nM |
| C[n+]1c2n(c3ccccc31)N=C(c1ccccc1)C[Se]2 | 832 nM | 23600 nM | 471 nM |
| O=C(CCl)NCCNc1ncc(C(F)(F)F)cc1Cl | 612 nM | 17800 nM | 453 nM |
| COC(=O)c1sc(-c2ccccc2)cc1NC(=O)c1ccc(S(=O)(=O)N2CCCCCC2)cc1 | > 506 nM | > 14100 nM | > 1250 nM |
| Brc1ccc(Nc2nc(NCC3CCCO3)c3ccccc3n2)cc1 (stereo not given) | 349 nM | 9780 nM | 468 nM |
| COC(=O)c1sccc1S(=O)(=O)N1CCCC(c2[nH]ncc2-c2ccccc2)C1 (stereo not given) | 3440 nM | > 100000 nM | 3030 nM |
| CCC(C)(O)C(=O)O[C@H]1C(=O)OC2CC3C(C)=C[C@H](O)[C@@H](O)[C@]3(C)C3C24CO[C@]3(O)[C@H](O)[C@H](C)C14 (stereo not given in full) | 215 nM | > 6250 nM | 227 nM |
| CCC(CO)Nc1nccnc1-c1ccccc1Oc1ccccc1 (stereo not given) | 3560 nM | > 100000 nM | 4540 nM |
| CN1c2ccccc2N(C)C1c1ccco1 | 356 nM | > 10000 nM | 288 nM |
| CCC(C)NC(=O)CN(c1cc(OC)ccc1OC)S(C)(=O)=O (stereo not given) | 349 nM | > 10000 nM | 438 nM |
| O=C(Nc1ccc(NC(=O)c2ccco2)cc1Cl)c1ccccc1 | > 348 nM | > 10000 nM | > 1650 nM |
